# Columns and labels:
# [1] = PK of REG in plasma and CT26 tumor tissue; type: in vivo, mouse; conditions: after the last dose, CT26 mice
# Description: (§1) CT26 tumor cells were cultivated in RPMI 1640 with 2 mM L-glutamine (Gibco, Invitrogen GmbH) containing 10% fetal bovine serum (Gibco) at 37 °C and 5% CO2. Cell lines were maintained in culture for no longer than 6 months, and mycoplasma contamination was excluded by enzymatic test (MycoAlert, Lonza) prior to in vivo application. Tumor cells (2 × 10^6) were transplanted subcutaneously into 6- to 8-week-old female BALB/c mice. Control mice were subjected to sham surgery without tumor cell transplantation. Blood and tumor samples were collected from untreated control and tumor-bearing mice on days 4 and 8 (n = 3 mice/group). […] For interim analysis, blood and tumor tissue were collected from each group (n = 3 mice/group) after 7 days of treatment. For pharmacokinetic (PK)/pharmacodynamic (PD) relationship analysis, tissues were taken 24 h after the penultimate dose and 1, 3, 7, and 24 h after the ultimate dose. Tumor diameter was measured by caliper and body weight was determined at least twice weekly. Tumor volume was calculated using the formula 0.5 × a × b^2, where a and b are the long and short diameters of the tumor, respectively.
# PK parameters, namely AUC(0–24)ss and Cmax, were calculated from plasma and tumor concentrations using a noncompartmental analysis.
# ERK1/2 = experiment: Inhibition of ERK activation in CSF1-stimulated RAW264.7 cells (western blot); type: cell-based, mouse; conditions: Mus musculus, mean ± SD (replicates), read-out: Mean kinase IC50 values: P(T185,202;Y187,204) ERK1/2 [WB]
# Description: RAW264.7 cells (10^6) were seeded into cell culture dishes 6 cm in diameter and incubated in 4 mL RPMI/10% fetal bovine serum (Biochrom) for 24 h at 37 °C in a humidified 5% CO2 atmosphere. Cells were washed once with phosphate-buffered saline (PBS) and starved in 3 mL RPMI/0.1% bovine serum albumin for another 24 h. Cells were then treated for 1 h at 37 °C with drugs at the indicated final concentrations, with 0.5% DMSO as vehicle control, or left untreated, and finally stimulated for 2 min at 37 °C with 100 ng/mL recombinant mouse CSF1 (R&D Systems) by adding 1 mL prewarmed starving medium containing 400 ng/mL CSF1. Dishes were placed on ice and cells were immediately washed with ice-cold PBS and lysed with 50 µL lysis buffer (50 mM HEPES pH 7.5, 150 mM NaCl, 1.5 mM MgCl2, 10% glycerol, 1% Triton X-100, 0.5% desoxycholate, 0.2% sodium dodecyl sulfate, 1 mM ethylene glycol-bis[β-aminoethyl ether]-N,N,N′,N′-tetraacetic acid, 100 mM NaF, 10 mM Na4P2O7, 1 mM Na3VO4, 1% Phosphatase Inhibitor Cocktail 3 [Sigma-Aldrich], 1 mM phenylmethyl sulfonyl fluoride, Complete Protease Inhibitor Cocktail [Roche CustomBiotech; 1 tablet/10 mL], and 50 U/mL Benzonase [Sigma-Aldrich]). Lysed cells were scraped into Eppendorf tubes, incubated on ice for 20 min, and centrifuged at 4 °C for 10 min at 13,000 rpm; supernatants (lysates) were transferred into new tubes and stored at −80 °C.
# Protein concentrations were determined using Pierce bicinchoninic acid assay (Thermo Fisher Scientific) and 40 µg/lane of total lysate was separated by SDS-PAGE on 4–12% Criterion XT Bis–Tris Gels (Bio-Rad) and subsequently transferred to polyvinylidene difluoride membranes using the Trans Blot Turbo Blotting System (Bio-Rad). For antigen detection, membranes were blocked with PBS Odyssey blocking reagent (LI-COR Biosciences) for 1 h at room temperature (RT). Primary antibodies were incubated overnight at 4 °C and the fluorescent secondary antibodies were incubated for 1 h at RT. After each antibody incubation, blots were washed with PBS with 0.05% Tween 20 (Carl Roth) for 15–30 min at RT. Fluorescent signals were quantitatively captured using the Odyssey DLx Infrared Imaging System (LI-COR Biosciences) and the half-maximal inhibitory concentration (IC50) values were calculated using GraphPad software (version 7 or newer).
# CCL2 [2] = experiment: CCL2 ELISA in CT26 tumor tissue; type: in vivo, mouse; conditions: CT26 tumors
# Description: as §1, with “For pharmacokinetic (PK)/pharmacodynamic (PD) relationship analysis, tissues were taken 24 h after the penultimate dose and 1, 3, 7, and 24 h after the ultimate dose.” left out
# For tissue collection, mice were killed at predetermined time points. […] Tumors were removed, and their weights determined, then divided into three pieces, one of which was snap-frozen, one formalin fixed and paraffin embedded, and one weighed and used for FC analyses. […]
# CCL2 [3] = experiment: CCL2 in blood, MC38 study; type: in vivo, mouse; conditions: C57BL/6 mice with subcutaneous MC38 CRC tumors
# Description: CCL2 was detected in plasma samples and tumor tissue using the U-Plex mouse MCP-1 ELISA Kit (Meso Scale Diagnostics) according to the manufacturer’s instructions. Measurements were performed at least in duplicate. For plasma, 12.5 µL was analyzed per animal.
# Five analysis of variance (ANOVA) models were applied to analyze the log10-transformed values of the tumor weight in the CT26 study, the CCL2 levels in the tumor in the CT26 and MC38 studies, and the CCL2 levels in the PB in the CT26 and MC38 studies. The standard assumption of equal variances between treatment groups was applied for all endpoints, except for CCL2 levels in the tumor in the MC38 study, for which unequal variances between treatment groups were allowed. A negative binomial regression model was applied to evaluate percentages of CD115^hi and F4/80^hi cells within the CD45^+ cell population in PB and tumor tissue, respectively.
# In vivo passaging was initiated by transplanting fragments of cryo-preserved MC38 tumors of early passages (<p5) subcutaneously into 6–8-week-old female C57BL/6 mice. Tumors were grown to a size of about 1000 mm^3, excised, cut into fragments edging approximately 2 mm, and used for further passaging in vivo for a maximum of 10 passages. Necrotic areas were removed. […]
# TAM-associated genes = experiment: qRT-PCR of TAM-associated genes in CT26 tumors; type: in vivo, mouse; conditions: REG(V1) vs V1, qRT-PCR
smiles,measurement,setting,value
"CNC(=O)c1cc(Oc2ccc(NC(=O)Nc3ccc(Cl)c(C(F)(F)F)c3)c(F)c2)ccn1 [REG, Regorafenib]",time of highest concentration of REG (Cmax) in plasma,[1],≤ 3 h
same,IC50,ERK1/2,293 ± 123 nM
same,CCL2 concentrations in tumor lysates vs vehicle controls,CCL2 [2],a trend toward higher levels
same,CCL2 levels in blood,CCL2 [3],without affecting
same,transcript frequency of Adgre1 (F4/80),TAM-associated genes,significantly reduced
same,transcript frequency of Arg1,TAM-associated genes,unchanged
same,transcript frequency of CSF1R,TAM-associated genes,significantly reduced
same,transcript frequency of Hilpda,TAM-associated genes,unchanged
same,transcript frequency of Maf,TAM-associated genes,reduced
same,transcript frequency of MafB,TAM-associated genes,unchanged
same,transcript frequency of Mgl2,TAM-associated genes,reduced
same,transcript frequency of Mrc1 (CD206),TAM-associated genes,significantly reduced
same,transcript frequency of Nos2,TAM-associated genes,unchanged
same,transcript frequency of VEGFA,TAM-associated genes,unchanged

# — publication PMC10069031 (European Journal of Medical Research, 2023)
